# Laboratory results as given in EP4663639A1, “SALT AND CRYSTAL OF MNK INHIBITOR COMPOUND AND PREPARATION METHOD THEREFOR” (Novostar Pharmaceuticals, Ltd., priority 2023, dated 2024).
# Columns and labels:
# Type in all cases: physicochemical
# [1] = Storage stability of crystals at different temperatures, airtight (HPLC purity, XRPD crystal form)
# Method: 10 mg polymorph I of compound 1 obtained in Comparative Example 1 and polymorph A of sulfate salt obtained in Example 1 were placed in an airtight environment and stored at 2~8 °C, 25 °C and 60 °C for 1 week and 2 weeks, respectively, and then samples were taken to examine the chemical purity of the samples by HPLC and the crystal morphology of the samples by XRPD. Table 11 Evaluation of storage properties of crystals at different temperatures
# [2] = Solubility in buffers and water (HPLC of supernatant)
# Method: Polymorph I of compound 1 obtained in Comparative Example 1, and sulfate polymorph A obtained in Example 1 were weighed in a sample vial, to which 1 mL of hydrochloric acid buffer solution at pH=1.2, acetate buffer solution at pH=4.5, phosphate buffer solution at pH=6.8, and water were added, respectively. The suspension was magnetically stirred at 25°C (1000 r/min).
# [3] = Temperature and humidity stability, open storage (HPLC purity, XRPD crystal form)
# Method: The sulfate polymorph A obtained in Example 1 was placed openly under conditions of 25°C/92.5% RH, 25°C/60% RH and 40°C/75% RH to test the temperature and humidity stability. After the samples were stored for 1 week and 4 weeks, respectively, the purity of the samples was tested by HPLC, and the crystalline morphology of the samples was detected by XRPD.
# The XRPD results of sulfate polymorph A after 1 and 4 weeks of storage at 25°C/92.5% RH, 25°C/60% RH and 40°C/75% RH are shown in Figures 14 and 15. Table 12 Stability assessment of sulfate polymorph A at different temperatures and humidities
# [4] = Moisture adsorption-desorption by DVS; settings: 25 °C
# Method: The moisture adsorption-desorption properties of sulfate polymorph A obtained according to Example 1 were examined by DVS. 16 mg of sulfate polymorph A was placed in a metal container, which was placed in an Intrinsic DVS apparatus. A cyclic humidity gradient of 40-95-0-40% RH was set at 25 °C, and the samples were subjected to two successive adsorption-desorption cycles. At each stage, the following equilibrium criteria were used: mass change dm/dt < 0.002% over 5 min, with minimum and maximum equilibrium times of 60 min and 360 min, respectively, at each stage. Table 13 Dynamic water adsorption experiments for sulfate polymorph A
# [5] = acetate buffer solution pH 4.5, 25°C, 24 h
# [6] = hydrochloric acid buffer solution pH 1.2, 25°C, 24 h
# [7] = phosphate buffer solution pH 6.8, 25°C, 24 h
# [8] = 25°C/60%RH for four weeks, open
# [9] = 25°C/92.5% RH for four weeks, open
# [10] = 25°C/92.5% RH for one week, open
# [11] = 40°C/75% RH for four weeks, open
molecule,measurement,setting,value
"N-(12'-methyl-1',5'-dioxo-1',5',6 ',11'-tetrahydro-2'H-spiro[cyclohexane-1,3'-imidazo[1,5':1,6]pyrido[3,4-b][ 1,6]naphthyridin]-8'-yl)cyclopropane carboxamide [polymorph I of Compound 1]",crystal structure (XRPD) after storage,[1]; 2 weeks at high temperature (60 °C),the crystal structure changed
same,crystal structure (XRPD) after storage,[1]; 2 weeks at low temperature (2-8 °C) or room temperature (25 °C),did not change significantly
same,Purity (%),[1]; Initial,97.4%
same,the amount of aromatic hydrocarbons (%),[1]; Initial,1.6%
same,Purity (%),"[1]; One week, 2~8 °C, airtight",97.6%
same,the amount of aromatic hydrocarbons (%),"[1]; One week, 2~8 °C, airtight",1.4%
same,Purity (%),"[1]; One week, 25 °C, airtight",97.6%
same,the amount of aromatic hydrocarbons (%),"[1]; One week, 25 °C, airtight",1.4%
same,Purity (%),"[1]; One week, 60 °C, airtight",96.6%
same,the amount of aromatic hydrocarbons (%),"[1]; One week, 60 °C, airtight",2.4%
same,Purity (%),"[1]; Two weeks, 2~8 °C, airtight",97.5%
same,the amount of aromatic hydrocarbons (%),"[1]; Two weeks, 2~8 °C, airtight",1.5%
same,Purity (%),"[1]; Two weeks, 25 °C, airtight",97.4%
same,the amount of aromatic hydrocarbons (%),"[1]; Two weeks, 25 °C, airtight",1.6%
same,Purity (%),"[1]; Two weeks, 60 °C, airtight",96.3%
same,the amount of aromatic hydrocarbons (%),"[1]; Two weeks, 60 °C, airtight",2.7%
same,Solubility (μg/mL),[2]; [5],Not detected
same,pH of the solution after solvation saturation has been reached,[2]; [5],3.5
same,Solubility,[2]; [6],0.0187 mg/mL
same,pH of the solution after solvation saturation has been reached,[2]; [6],1.0
same,Solubility (μg/mL),[2]; [7],Not detected
same,pH of the solution after solvation saturation has been reached,[2]; [7],6.4
same,Solubility (μg/mL),"[2]; water, 25°C, 24 h",Not detected
same,pH of the solution after solvation saturation has been reached,"[2]; water, 25°C, 24 h",6.4
Cc1c2c(c(=O)n3c1C(=O)NC31CCCCC1)Nc1cc(NC(=O)C3CC3)ncc1C2 [Sulfate polymorph A],crystal structure (XRPD) after storage,"[1]; 1 week and 2 weeks at 2~8 °C, 25 °C and 60 °C",did not undergo significant changes
same,Purity (%),[1]; Initial,97.5%
same,the amount of aromatic hydrocarbons (%),[1]; Initial,1.5%
same,Purity (%),"[1]; One week, 2~8 °C, airtight",97.5%
same,the amount of aromatic hydrocarbons (%),"[1]; One week, 2~8 °C, airtight",1.5%
same,Purity (%),"[1]; One week, 25 °C, airtight",97.4%
same,the amount of aromatic hydrocarbons (%),"[1]; One week, 25 °C, airtight",1.5%
same,Purity (%),"[1]; One week, 60 °C, airtight",97.3%
same,the amount of aromatic hydrocarbons (%),"[1]; One week, 60 °C, airtight",1.7%
same,Purity (%),"[1]; Two weeks, 2~8 °C, airtight",97.5%
same,the amount of aromatic hydrocarbons (%),"[1]; Two weeks, 2~8 °C, airtight",1.5%
same,Purity (%),"[1]; Two weeks, 25 °C, airtight",97.5%
same,the amount of aromatic hydrocarbons (%),"[1]; Two weeks, 25 °C, airtight",1.5%
same,Purity (%),"[1]; Two weeks, 60 °C, airtight",97.1%
same,the amount of aromatic hydrocarbons (%),"[1]; Two weeks, 60 °C, airtight",1.8%
same,Aromatic content (%),"[3]; 25°C/60% RH for one week, open",1.0%
same,Purity (%),"[3]; 25°C/60% RH for one week, open",98.1%
same,Aromatic content (%),[3]; [8],1.0%
same,Purity (%),[3]; [8],98.1%
same,Aromatic content (%),[3]; [9],1.2%
same,Purity (%),[3]; [9],97.8%
same,Aromatic content (%),[3]; [10],1.0%
same,Purity (%),[3]; [10],98.1%
same,Aromatic content (%),[3]; [11],1.1%
same,Purity (%),[3]; [11],97.9%
same,Aromatic content (%),"[3]; 40°C/75% RH for one week, open",1.0%
same,Purity (%),"[3]; 40°C/75% RH for one week, open",98.1%
same,Aromatic content (%),[3]; Initial,1.0%
same,Purity (%),[3]; Initial,98.1%
same,structural stability (purity and XRPD) on storage,"[3]; different humidity and temperature conditions, 1 and 4 weeks",high structural stability
same,hygroscopicity,[4]; 0%RH-95%RH,slightly hygroscopic
same,moisture absorbed,[4]; range 0%RH-95%RH,1.2%
same,1st Desorption Mass change (%),[4]; Relative humidity 0 %,-0.574%
same,2nd Adsorption Mass change (%),[4]; Relative humidity 0 %,-0.574%
same,1st Desorption Mass change (%),[4]; Relative humidity 10 %,-0.344%
same,2nd Adsorption Mass change (%),[4]; Relative humidity 10 %,-0.368%
same,1st Desorption Mass change (%),[4]; Relative humidity 20 %,-0.210%
same,2nd Adsorption Mass change (%),[4]; Relative humidity 20 %,-0.246%
same,1st Desorption Mass change (%),[4]; Relative humidity 30 %,-0.084%
same,2nd Adsorption Mass change (%),[4]; Relative humidity 30 %,-0.133%
same,1st Adsorption Mass change (%),[4]; Relative humidity 40 %,0.000%
same,1st Desorption Mass change (%),[4]; Relative humidity 40 %,0.081%
same,2nd Adsorption Mass change (%),[4]; Relative humidity 40 %,-0.017%
same,1st Adsorption Mass change (%),[4]; Relative humidity 50 %,0.085%
same,1st Desorption Mass change (%),[4]; Relative humidity 50 %,0.178%
same,1st Adsorption Mass change (%),[4]; Relative humidity 60 %,0.174%
same,1st Desorption Mass change (%),[4]; Relative humidity 60 %,0.253%
same,1st Adsorption Mass change (%),[4]; Relative humidity 70 %,0.260%
same,1st Desorption Mass change (%),[4]; Relative humidity 70 %,0.327%
same,1st Adsorption Mass change (%),[4]; Relative humidity 80 %,0.357%
same,1st Desorption Mass change (%),[4]; Relative humidity 80 %,0.418%
same,1st Adsorption Mass change (%),[4]; Relative humidity 90 %,0.497%
same,1st Desorption Mass change (%),[4]; Relative humidity 90 %,0.589%
same,1st Adsorption Mass change (%),[4]; Relative humidity 95 %,0.604%
same,1st Desorption Mass change (%),[4]; Relative humidity 95 %,0.604%
same,solubility at 24 h,"[2]; acetate buffer solution pH 4.5, 25°C",0.0586 mg/mL
same,pH of the solution after solvation saturation has been reached,[2]; [5],2.0
same,solubility at 24 h,"[2]; hydrochloric acid buffer solution pH 1.2, 25°C",0.0225 mg/mL
same,pH of the solution after solvation saturation has been reached,[2]; [6],1.2
same,solubility at 24 h,"[2]; phosphate buffer solution pH 6.8, 25°C",0.0216 mg/mL
same,pH of the solution after solvation saturation has been reached,[2]; [7],2.0
same,solubility at 24 h,"[2]; water, 25°C",0.0647 mg/mL
same,pH of the solution after solvation saturation has been reached,"[2]; water, 25°C, 24 h",1.5
